Laboratory results reported in patent US10576105B2, “Mesenchymal stem cells with enhanced immunosuppressive capability” (Escape Therapeutics, Inc., priority 2015, dated 2020).

Experiments:
Assay type in all cases: cell-based, human
[1] = test system: HLA-G5; assay: HLA-G5 mRNA level in AMSCs by RT-PCR; details: for Relative expression of HLA-G5: AMSCs, band intensity HLA-G5 divided by β2M, means±SEM, 3 runs
Procedure: (§1) AMSCs were isolated from adult human lipoaspirate of patients undergoing liposuction procedure. Briefly, abdominal subcutaneous adipose samples were washed with Hanks' balanced salt solutions (HBSS) (Invitrogen, Carlsbad, Calif.). After gentle shaking, the lower phase (containing stem cells, adipocytes, and blood) was washed and enzymatically dissociated with 0.075% collagenase type I (Sigma-Aldrich, St. Louis, Mo.)/HBSS for 1 h at 37° C. with gentle shaking. Collagenase was inactivated by adding fetal bovine serum (FBS) and samples were centrifuged at 400 g for 10 min at 25° C. The pellet was resuspended in RBC lysis buffer (eBioscience, San Diego, Calif.) and adherent cell masses were removed by sequential passing through 100, 70, and 40 μm mesh filters. Cells were then added into equal amounts of HISTOPAQUE-1077 (Sigma) and centrifuged at 400 g for 30 min to separate MSCs. Cells were seeded at 1-2×10^4 cells/cm^2 and grown in Dulbecco's modified eagle medium (DMEM, Invitrogen) supplemented with 10% FBS and 1% penicillin/streptomycin (Invitrogen) at 37° C. in a humidified 5% CO2 incubator and media changed every 2-3 d. After reaching 70-80% confluence, cells were washed with phosphate buffered saline (PBS), detached with 0.25% trypsin-EDTA (Invitrogen), then centrifuged and expanded at 1:3 split ratios.
After 72 h treatment, cells were trypsinized and total RNA extracted using RNeasy kit (Qiagen, Valencia, Calif.) according to the manufacturer's protocol. Semi-quantitative RT-PCR reactions were performed on a DNA Engine Peltier Thermal Cycler (Bio-Rad, Hercules, Calif.) as previously described. M. D. Nicola, et al., Human bone marrow stromal cells suppress T-lymphocyte proliferation induced by cellular or non-specific mitogenic stimuli, Blood 99: 3838-3843 (2002). Briefly, first strand cDNA was synthesized in 50 μl reactions from 2 μg total RNA using oligo dT primers and TaqMan reverse transcription reagents (Applied Biosystems, Foster City, Calif.). […]

[2] = test system: HLA-G3; assay: HLA-G3 transcript expression in AMSCs by semi-quantitative RT-PCR; details: for Relative HLA-G3 expression: ratio HLA-G to β-actin, mean±SEM, 3 experiments
Procedure: as §1
(§2) Demethylating treatment was carried out by culturing MSCs for 72 h with 5-aza-2′-deoxycytidine (5-aza-dC) (Sigma) at a final concentration of 10 μM or with the solvent DMSO as control.
(§3) After 72 h treatment, cells were trypsinized and total RNA extracted using RNeasy kit (Qiagen, Valencia, Calif.) according to the manufacturer's protocol. Semi-quantitative RT-PCR reactions were performed on a DNA Engine Peltier Thermal Cycler (Bio-Rad, Hercules, Calif.) as previously described. M. D. Nicola, et al., Human bone marrow stromal cells suppress T-lymphocyte proliferation induced by cellular or non-specific mitogenic stimuli, Blood 99: 3838-3843 (2002). Briefly, first strand cDNA was synthesized in 50 μl reactions from 2 μg total RNA using oligo dT primers and TaqMan reverse transcription reagents (Applied Biosystems, Foster City, Calif.). Reverse transcription (RT) reactions were carried out at 24° C. for 10 min, 48° C. for 1 h, and heat inactivation at 95° C. for 5 min. […] Relative expression levels were calculated from the ratio of integrated density values of HLA-G to that of β-actin.
(§4) Total RNA was extracted from both treated and untreated cells, and HLA-G1 and -G3 transcripts analyzed by semi-quantitative RT-PCR.
(§5) MSCs were treated with Valproic acid (VPA) (a known histone deacetylase inhibitor (HDAC) inhibitor) and HLA-G1, -G3 and HLA-G5 transcripts were evaluated by semi-quantitative RT-PCR.

[3] = test system: HLA-G1; assay: HLA-G1 transcript expression in AMSCs by semi-quantitative RT-PCR; details: for Relative HLA-G1 expression: 10 μM for 72 h, ratio HLA-G to β-actin, mean±SEM, 3 experiments
Procedure: as §1, with “ratios. […]” for “ratios.”
After 72 h treatment, cells were trypsinized and total RNA extracted using RNeasy kit (Qiagen, Valencia, Calif.) according to the manufacturer's protocol. Semi-quantitative RT-PCR reactions were performed on a DNA Engine Peltier Thermal Cycler (Bio-Rad, Hercules, Calif.) as previously described. […] Relative expression levels were calculated from the ratio of integrated density values of HLA-G to that of β-actin.
as §4, §5

[4] = test system: HLA-G5; assay: HLA-G5 mRNA level in BMSCs by RT-PCR; details: band intensity HLA-G5 divided by β2M, means±SEM, 3 runs
Procedure: (§6) Adult BMSCs (passage 2) were obtained from Cell Applications, Inc. (San Diego, Calif.) and cultured in alpha-minimum essential medium (α-MEM) (Invitrogen) supplemented with 10% FBS and 1% penicillin/streptomycin (Invitrogen) at 37° C. in a humidified 5% CO2 incubator. At 70-80% confluence, cells were harvested with 0.25% trypsin-EDTA (Invitrogen) and expanded at 1:3 split ratios.
as §3, with “PCR program consisted” for “Relative expression levels were calculated from the ratio”, “94° C. for 4 min, followed by 30 cycles at 94° C. for 30 s, 60° C. for 1 min, and 72° C. for 1 min with a final extension at 72° C. for 10 min. […]” for “integrated density values of HLA-G to that of β-actin.”

[5] = test system: HLA-G1; assay: HLA-G1 transcript expression in BMSCs by semi-quantitative RT-PCR; details: mean±SEM
Procedure: as §6, §2
After 72 h treatment, cells were trypsinized and total RNA extracted using RNeasy kit (Qiagen, Valencia, Calif.) according to the manufacturer's protocol. Semi-quantitative RT-PCR reactions were performed on a DNA Engine Peltier Thermal Cycler (Bio-Rad, Hercules, Calif.) as previously described. M. D. Nicola, et al., Human bone marrow stromal cells suppress T-lymphocyte proliferation induced by cellular or non-specific mitogenic stimuli, Blood 99: 3838-3843 (2002). Briefly, first strand cDNA was synthesized in 50 μl reactions from 2 μg total RNA using oligo dT primers and TaqMan reverse transcription reagents (Applied Biosystems, Foster City, Calif.). Reverse transcription (RT) reactions were carried out at 24° C. for 10 min, 48° C. for 1 h, and heat inactivation at 95° C. for 5 min. […] PCR program consisted of 94° C. for 4 min, followed by 30 cycles at 94° C. for 30 s, 60° C. for 1 min, and 72° C. for 1 min with a final extension at 72° C. for 10 min. PCR products were separated using 1.5% agarose gel in the presence of 0.5 μg/ml ethidium bromide and imaged using the FluorChem® HD2 Imaging System (Alpha Innotech Corporation, San Leandro, Calif.). Densitometry analysis was performed using AlphaEase FC software (Alpha Innotech Corporation). […]
as §4, §5

[6] = test system: HLA-G3; assay: HLA-G3 transcript expression in BMSCs by semi-quantitative RT-PCR; details: mean±SEM
Procedure: as §6, §2
After 72 h treatment, cells were trypsinized and total RNA extracted using RNeasy kit (Qiagen, Valencia, Calif.) according to the manufacturer's protocol. Semi-quantitative RT-PCR reactions were performed on a DNA Engine Peltier Thermal Cycler (Bio-Rad, Hercules, Calif.) as previously described. M. D. Nicola, et al., Human bone marrow stromal cells suppress T-lymphocyte proliferation induced by cellular or non-specific mitogenic stimuli, Blood 99: 3838-3843 (2002). Briefly, first strand cDNA was synthesized in 50 μl reactions from 2 μg total RNA using oligo dT primers and TaqMan reverse transcription reagents (Applied Biosystems, Foster City, Calif.). Reverse transcription (RT) reactions were carried out at 24° C. for 10 min, 48° C. for 1 h, and heat inactivation at 95° C. for 5 min. RT samples were diluted at 1:4 in DNase, RNase free water and PCR performed in 20 μl reaction using Taq PCR master mix (Qiagen), 1 μl of diluted template, and HLA-G primers (Table 1). β-actin was used as an internal control. PCR program consisted of 94° C. for 4 min, followed by 30 cycles at 94° C. for 30 s, 60° C. for 1 min, and 72° C. for 1 min with a final extension at 72° C. for 10 min. PCR products were separated using 1.5% agarose gel in the presence of 0.5 μg/ml ethidium bromide and imaged using the FluorChem® HD2 Imaging System (Alpha Innotech Corporation, San Leandro, Calif.). Densitometry analysis was performed using AlphaEase FC software (Alpha Innotech Corporation). Relative expression levels were calculated from the ratio of integrated density values of HLA-G to that of β-actin.
as §4, §5

[7] = BMSCs passage 5 (P5), 10 μM for 72 h, ratio HLA-G to β-actin, 3 experiments
[8] = BMSCs passage 10 (P10), 10 μM for 72 h, ratio HLA-G to β-actin, 3 experiments

| Compound | Upregulation of HLA-G5 mRNA ([1]; AMSCs treated with VPA (Table 2)) | Relative expression of HLA-G5 [1] | Upregulation of HLA-G3 mRNA ([2]; AMSCs treated with VPA, P5 and P10 (FIG. 5D)) | Upregulation of HLA-G1 mRNA ([3]; AMSCs treated with VPA, P5 and P10 (FIG. 5C)) | Relative expression of HLA-G5 [4] | Relative HLA-G1 expression ([5]; VPA-treated BMSCs passage 5 (P5), relative to β2M (FIG. 5A)) | Relative HLA-G1 expression ([5]; VPA-treated BMSCs passage 10 (P10), relative to β2M (FIG. 5A)) | Relative HLA-G3 expression ([6]; VPA-treated BMSCs passage 5 (P5), FIG. 5B) | Relative HLA-G3 expression ([6]; VPA-treated BMSCs passage 10 (P10), FIG. 5B) | Relative HLA-G3 expression, fold higher than untreated ([2]; AMSCs P5 and P10, 10 μM for 72 h, treated versus untreated) [fold] | Relative HLA-G3 expression ([2]; AMSCs passage 5 (P5), 10 μM for 72 h) | Relative HLA-G3 expression ([2]; AMSCs passage 10 (P10), 10 μM for 72 h) | Relative HLA-G1 expression ([3]; AMSCs passage 5 (P5)) | Relative HLA-G1 expression ([3]; AMSCs passage 10 (P10)) | Relative HLA-G1 expression [5, 7] | Relative HLA-G1 expression [5, 8] | Relative HLA-G3 expression [6, 7] | Relative HLA-G3 expression [6, 8] |
| --- | --- | --- | --- | --- | --- | --- | --- | --- | --- | --- | --- | --- | --- | --- | --- | --- | --- | --- |
| CCCC(CCC)C(=O)O [VPA, Valproic acid] | no upregulation | 0.006 ± 0.00 | no upregulation | no upregulation | 0.006 ± 0.004 | 0.08±0.02 | 0.05±0.002 | 0.04±0.01 | 0.01±0.001 | – | – | – | – | – | – | – | – | – |
| Nc1ncn([C@H]2C[C@H](O)[C@@H](CO)O2)c(=O)n1 [5-aza-dC, 4-amino-1-(2-deoxy-b-D-erythro-pentofuranosyl)-1,3,5-triazin-2(1H)-one] | – | 0.009 ± 0.001 | – | – | 0.009 ± 0.00 | – | – | – | – | ~2 | 0.31±0.05 | 0.27±0.06 | 0.15±0.02 | 0.23±0.19 | 0.16±0.01 | 0.24±0.01 | 0.33±0.08 | 0.38±0.07 |
